Test results taken from patent US20120010289A1, “METHOD FOR PLACENTAL EXFOLIATION USING OXO-ARACHIDONIC ACID OR THE LIKE” (Inc Admin Agcy Natl Agric & Food Res. Organization, priority 2007, published 2012).

Experiments:
[1] = system: cultured fibroblasts derived from the placenta (MMP-producing cells); experiment: Cell exfoliation assay to search for MMP activators; type: cell-based; conditions: fibroblasts from bovine fetal placenta, monolayer treated with cortisol, compound added; FIG. 2 and FIG. 3
Protocol: The in vitro pharmacological evaluation is exemplified by a method using cultured fibroblasts derived from the placenta (MMP-producing cells). First, the composition for placental exfoliation of the present invention is added to a culture medium of the concerned cultured fibroblasts. After the addition, the cells are cultured for a fixed period of time.
Therefore, cultured fibroblasts derived from the placenta (MMP-producing cells) were used to search for MMP activators.
Since in vivo MMP-2 is produced from fibroblasts, fibroblasts were prepared from bovine fetal placenta. A fixed amount of cells were seeded on the culture plate, and were treated with cortisol after the monolayer formation. Further, the MMP activator candidate compounds were added thereto.

[2] = system: pregnant Holstein cow; experiment: Placental exfoliation by administration of 12-oxoarachidonic acid to a cow after prostaglandin-induced fetal delivery; type: in vivo
Protocol: The in vivo pharmacological evaluation is exemplified by a method using cows which have delivered fetuses by means of the single administration of a prostaglandin. First, the composition for placental exfoliation of the present invention is administered to cows after the fetal delivery.
In order to induce the fetal delivery, a formulation (10 ml) containing a naturally-occurring prostaglandin (50 mg) was intramuscularly injected into the hip of a pregnant Holstein cow (dairy cow) (body weight 779 kg) a week prior to the due date. Moreover, a cow after the third calving was again administered with the prostaglandin after 12 hours from the first injection thereof (evening on the first day).
The mother cow and the newborn calf were both healthy.
Next, after 4 hours from the fetal delivery, a saline solution (15 ml) containing 12-oxoarachidonic acid (1 mg) was intrajugularly injected into the mother cow which had delivered a fetus. After about 6 hours from the injection, the whole amount of the placenta was released from the mother cow. FIG. 4 presents photographs showing the manner of such parturition. […] In cases of the non-administration of 12-oxoarachidonic acid, the placenta was not released from the mother cow, and the placental retention occurred.

[3] = system: MMP; experiment: MMP activity in released placenta by gelatin zymography; type: in vivo, cow; conditions: PG-induction+oxo placenta compared with normal parturition and placental retention; FIG. 5
Protocol: In the method using gelatin zymography, first, the composition for MMP activation of the present invention is brought into contact with MMP-producing cells. After the incubation for a fixed time, the cells are lysed to make a protein solution, which is then subjected to an electrophoresis using a SDS polyacrylamide electrophoresis gel containing a gelatin (MMP substrate). After the migration, the temperature was kept for a fixed time to progress the enzyme reaction, followed by staining of undegraded gelatin remaining in the gel.
The MMP activity in released placenta was analyzed. The samples were as follows: a placenta released from a mother cow of normal parturition (without specific treatment) (expressed as “normal parturition” in FIG. 5); a placenta from a mother cow which was subjected to the fetal delivery induction with a prostaglandin but suffered from placental retention (expressed as “PG-induced parturition” in FIG. 5); a placenta released from a mother cow which was subjected to the fetal delivery induction with a prostaglandin and the subsequent placental release induction with a 12-oxoarachidonic acid (expressed as “PG-induction+oxo” in FIG. 5); and a placenta from a mother cow which had naturally-occurring placental retention (expressed as “placental retention cow” in FIG. 5).
The MMP activity was measured using gelatin zymography. […]

Row | Structure (SMILES) | cell exfoliation activity (MMP activation ability) [1] | also measured
1 | CCCCC/C=C\C[C@@H](O)/C=C/C=C\C/C=C\CCCC(=O)O [12(R)-hydroxyarachidonic acid] | no cell exfoliation activities | –
2 | CCCCC/C=C\C[C@@H](/C=C/C=C\C/C=C\CCCC(=O)O)OO [12(S)-hydroperoxyarachidonic acid] | weak cell exfoliation activities | –
3 | CCCCC/C=C\C[C@H](O)/C=C/C=C\C/C=C\CCCC(=O)O [12(S)-hydroxyarachidonic acid] | no cell exfoliation activities | –
4 | CCCCC/C=C\CC(=O)/C=C/C=C\C/C=C\CCCC(=O)O [12-oxoarachidonic acid] | showed a cell exfoliation activity at a lower concentration than that of the arachidonic acid itself | time from injection to release of the whole amount of the placenta ([2]; 1 mg in 15 ml saline, intrajugular, 4 hours after fetal delivery, Holstein cow 779 kg): about 6 hours; reproductive function of the postexperimental mother cow ([2]; after 1 mg intrajugular 12-oxoarachidonic acid): reproductive function was not affected; MMP pattern (proMMP activity) of released placenta [3]: MMP pattern very close to that of the placenta released from the cow of normal parturition
5 | CCCCC/C=C\C/C=C\C/C=C\C/C=C\CCCC(=O)O [arachidonic acid] | confirmed to have a cell exfoliation activity | –
6 | CCCCC/C=C\C/C=C\C/C=C\CCCCCCC(=O)O [dihomo-γ-linolenic acid] | weak activity | –
7 | CCCCC/C=C\C/C=C\CCCCCCCC(=O)O [linoleic acid] | weak activity | –
8 | CC/C=C\C/C=C\C/C=C\C/C=C\CCCCC(=O)O [stearidonic acid] | weak activity | –
9 | CC/C=C\C/C=C\C/C=C\CCCCCCCC(=O)O [α-linolenic acid] | weak activity | –
10 | CCCCC/C=C\C/C=C\C/C=C\CCCCC(=O)O [γ-linolenic acid] | medium activity | –
11 | CC/C=C/C/C=C/C/C=C/C/C=C/CCCCCCC(=O)O [ω-3-arachidonic acid] | weak activity | –
